Data reported in ChEMBL document CHEMBL3864133, “Discovery of a Potent and Selective in Vivo Probe (GNE-272) for the Bromodomains of CBP/EP300” (J Med Chem, 2016).
The source made the active and inactive calls. No cut-off for these calls is given here.

How the values were obtained:
[1] = Apparent permeability of the compound across apical side to basolateral side in MDCK cells at 10 uM measured after 180 mins by LC-MS/MS analysis; assay type: ADME, cell-based, Canis lupus familiaris; details: dog
Cytochrome P450 3A4 = Cytochrome P450 3A4 (Homo sapiens, UniProt P08684); test: Inhibition of CYP3A4 in human liver microsomes assessed as formation of 6beta-hydroxytestosterone from testosterone measured after 10 mins in presence of NADPH by LC-MS/MS analysis; assay type: ADME; details: read-out: INH
[2] = molecular target: T1, CREB-binding protein/Histone acetyltransferase p300 (Homo sapiens, UniProt Q09472+Q92793); test: Inhibition of CBP/EP300 in human HL60 cells assessed as decrease in MYC expression at 5 uM measured after 4 hrs by RT-PCR analysis relative to DMSO control; assay type: cell-based; details: HL-60
T1 sequence (Q09472 whole entry, looked up): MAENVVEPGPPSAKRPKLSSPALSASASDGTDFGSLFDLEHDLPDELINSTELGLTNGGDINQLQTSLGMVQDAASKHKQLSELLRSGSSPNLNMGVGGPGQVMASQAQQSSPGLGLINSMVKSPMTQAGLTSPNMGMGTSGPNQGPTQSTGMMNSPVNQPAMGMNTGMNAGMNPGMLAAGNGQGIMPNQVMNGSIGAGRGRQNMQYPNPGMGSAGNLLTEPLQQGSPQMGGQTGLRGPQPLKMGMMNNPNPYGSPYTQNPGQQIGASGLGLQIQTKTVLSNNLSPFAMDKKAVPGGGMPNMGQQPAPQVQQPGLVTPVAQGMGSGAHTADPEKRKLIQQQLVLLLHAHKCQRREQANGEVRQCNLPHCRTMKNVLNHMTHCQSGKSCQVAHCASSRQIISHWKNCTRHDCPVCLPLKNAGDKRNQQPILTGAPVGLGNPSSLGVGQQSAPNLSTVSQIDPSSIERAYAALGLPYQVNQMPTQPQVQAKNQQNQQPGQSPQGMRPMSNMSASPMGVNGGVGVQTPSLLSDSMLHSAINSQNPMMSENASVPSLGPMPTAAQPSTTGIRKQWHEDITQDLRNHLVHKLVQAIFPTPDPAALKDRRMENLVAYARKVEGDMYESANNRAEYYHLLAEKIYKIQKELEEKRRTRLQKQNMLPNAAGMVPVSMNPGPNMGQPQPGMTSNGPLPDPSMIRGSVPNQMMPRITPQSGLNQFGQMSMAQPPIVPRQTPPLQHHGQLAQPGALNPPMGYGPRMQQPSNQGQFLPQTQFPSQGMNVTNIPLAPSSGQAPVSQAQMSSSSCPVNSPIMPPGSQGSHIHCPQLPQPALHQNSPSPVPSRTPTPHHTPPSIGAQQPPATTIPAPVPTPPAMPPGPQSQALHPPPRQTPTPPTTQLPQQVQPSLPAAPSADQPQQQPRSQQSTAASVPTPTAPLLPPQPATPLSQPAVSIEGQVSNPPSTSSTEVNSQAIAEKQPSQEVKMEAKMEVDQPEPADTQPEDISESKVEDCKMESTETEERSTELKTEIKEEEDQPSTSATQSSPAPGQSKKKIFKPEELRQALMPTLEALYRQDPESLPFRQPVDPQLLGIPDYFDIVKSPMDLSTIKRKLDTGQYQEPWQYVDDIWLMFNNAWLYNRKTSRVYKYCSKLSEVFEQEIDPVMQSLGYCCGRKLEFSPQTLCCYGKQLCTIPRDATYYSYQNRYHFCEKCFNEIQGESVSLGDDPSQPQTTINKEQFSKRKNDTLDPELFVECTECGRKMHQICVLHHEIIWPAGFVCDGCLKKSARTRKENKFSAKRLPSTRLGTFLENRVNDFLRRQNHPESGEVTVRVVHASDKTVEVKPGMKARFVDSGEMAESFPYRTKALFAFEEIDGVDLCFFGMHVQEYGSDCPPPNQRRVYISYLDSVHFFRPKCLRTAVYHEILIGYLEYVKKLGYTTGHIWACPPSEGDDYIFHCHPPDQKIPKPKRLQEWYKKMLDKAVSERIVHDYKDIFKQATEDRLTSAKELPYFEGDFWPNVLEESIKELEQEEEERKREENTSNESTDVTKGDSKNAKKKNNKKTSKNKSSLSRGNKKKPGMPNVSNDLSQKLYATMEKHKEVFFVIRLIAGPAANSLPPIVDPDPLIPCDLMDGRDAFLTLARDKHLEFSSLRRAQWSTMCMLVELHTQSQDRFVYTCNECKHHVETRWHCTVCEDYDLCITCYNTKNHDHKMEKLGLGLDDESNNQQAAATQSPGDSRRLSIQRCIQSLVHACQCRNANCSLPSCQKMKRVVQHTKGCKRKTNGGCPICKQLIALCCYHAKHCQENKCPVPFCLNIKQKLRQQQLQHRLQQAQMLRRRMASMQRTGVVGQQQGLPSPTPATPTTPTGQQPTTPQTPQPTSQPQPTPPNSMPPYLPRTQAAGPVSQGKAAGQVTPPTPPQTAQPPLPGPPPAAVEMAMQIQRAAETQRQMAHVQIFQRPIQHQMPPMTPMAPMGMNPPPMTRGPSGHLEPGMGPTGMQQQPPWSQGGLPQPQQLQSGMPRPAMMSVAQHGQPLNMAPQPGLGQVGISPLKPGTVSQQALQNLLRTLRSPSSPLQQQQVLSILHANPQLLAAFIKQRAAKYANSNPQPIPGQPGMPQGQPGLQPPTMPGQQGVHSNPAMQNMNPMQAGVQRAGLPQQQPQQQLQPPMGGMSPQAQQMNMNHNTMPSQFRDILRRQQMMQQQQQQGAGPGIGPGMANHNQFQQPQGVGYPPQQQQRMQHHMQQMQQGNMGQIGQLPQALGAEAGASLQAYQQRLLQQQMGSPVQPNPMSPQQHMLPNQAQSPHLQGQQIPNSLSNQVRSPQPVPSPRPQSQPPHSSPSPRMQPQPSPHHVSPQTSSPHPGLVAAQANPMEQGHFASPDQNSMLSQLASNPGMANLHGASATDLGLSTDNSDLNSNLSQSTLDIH
T1 sequence (Q92793 whole entry, looked up): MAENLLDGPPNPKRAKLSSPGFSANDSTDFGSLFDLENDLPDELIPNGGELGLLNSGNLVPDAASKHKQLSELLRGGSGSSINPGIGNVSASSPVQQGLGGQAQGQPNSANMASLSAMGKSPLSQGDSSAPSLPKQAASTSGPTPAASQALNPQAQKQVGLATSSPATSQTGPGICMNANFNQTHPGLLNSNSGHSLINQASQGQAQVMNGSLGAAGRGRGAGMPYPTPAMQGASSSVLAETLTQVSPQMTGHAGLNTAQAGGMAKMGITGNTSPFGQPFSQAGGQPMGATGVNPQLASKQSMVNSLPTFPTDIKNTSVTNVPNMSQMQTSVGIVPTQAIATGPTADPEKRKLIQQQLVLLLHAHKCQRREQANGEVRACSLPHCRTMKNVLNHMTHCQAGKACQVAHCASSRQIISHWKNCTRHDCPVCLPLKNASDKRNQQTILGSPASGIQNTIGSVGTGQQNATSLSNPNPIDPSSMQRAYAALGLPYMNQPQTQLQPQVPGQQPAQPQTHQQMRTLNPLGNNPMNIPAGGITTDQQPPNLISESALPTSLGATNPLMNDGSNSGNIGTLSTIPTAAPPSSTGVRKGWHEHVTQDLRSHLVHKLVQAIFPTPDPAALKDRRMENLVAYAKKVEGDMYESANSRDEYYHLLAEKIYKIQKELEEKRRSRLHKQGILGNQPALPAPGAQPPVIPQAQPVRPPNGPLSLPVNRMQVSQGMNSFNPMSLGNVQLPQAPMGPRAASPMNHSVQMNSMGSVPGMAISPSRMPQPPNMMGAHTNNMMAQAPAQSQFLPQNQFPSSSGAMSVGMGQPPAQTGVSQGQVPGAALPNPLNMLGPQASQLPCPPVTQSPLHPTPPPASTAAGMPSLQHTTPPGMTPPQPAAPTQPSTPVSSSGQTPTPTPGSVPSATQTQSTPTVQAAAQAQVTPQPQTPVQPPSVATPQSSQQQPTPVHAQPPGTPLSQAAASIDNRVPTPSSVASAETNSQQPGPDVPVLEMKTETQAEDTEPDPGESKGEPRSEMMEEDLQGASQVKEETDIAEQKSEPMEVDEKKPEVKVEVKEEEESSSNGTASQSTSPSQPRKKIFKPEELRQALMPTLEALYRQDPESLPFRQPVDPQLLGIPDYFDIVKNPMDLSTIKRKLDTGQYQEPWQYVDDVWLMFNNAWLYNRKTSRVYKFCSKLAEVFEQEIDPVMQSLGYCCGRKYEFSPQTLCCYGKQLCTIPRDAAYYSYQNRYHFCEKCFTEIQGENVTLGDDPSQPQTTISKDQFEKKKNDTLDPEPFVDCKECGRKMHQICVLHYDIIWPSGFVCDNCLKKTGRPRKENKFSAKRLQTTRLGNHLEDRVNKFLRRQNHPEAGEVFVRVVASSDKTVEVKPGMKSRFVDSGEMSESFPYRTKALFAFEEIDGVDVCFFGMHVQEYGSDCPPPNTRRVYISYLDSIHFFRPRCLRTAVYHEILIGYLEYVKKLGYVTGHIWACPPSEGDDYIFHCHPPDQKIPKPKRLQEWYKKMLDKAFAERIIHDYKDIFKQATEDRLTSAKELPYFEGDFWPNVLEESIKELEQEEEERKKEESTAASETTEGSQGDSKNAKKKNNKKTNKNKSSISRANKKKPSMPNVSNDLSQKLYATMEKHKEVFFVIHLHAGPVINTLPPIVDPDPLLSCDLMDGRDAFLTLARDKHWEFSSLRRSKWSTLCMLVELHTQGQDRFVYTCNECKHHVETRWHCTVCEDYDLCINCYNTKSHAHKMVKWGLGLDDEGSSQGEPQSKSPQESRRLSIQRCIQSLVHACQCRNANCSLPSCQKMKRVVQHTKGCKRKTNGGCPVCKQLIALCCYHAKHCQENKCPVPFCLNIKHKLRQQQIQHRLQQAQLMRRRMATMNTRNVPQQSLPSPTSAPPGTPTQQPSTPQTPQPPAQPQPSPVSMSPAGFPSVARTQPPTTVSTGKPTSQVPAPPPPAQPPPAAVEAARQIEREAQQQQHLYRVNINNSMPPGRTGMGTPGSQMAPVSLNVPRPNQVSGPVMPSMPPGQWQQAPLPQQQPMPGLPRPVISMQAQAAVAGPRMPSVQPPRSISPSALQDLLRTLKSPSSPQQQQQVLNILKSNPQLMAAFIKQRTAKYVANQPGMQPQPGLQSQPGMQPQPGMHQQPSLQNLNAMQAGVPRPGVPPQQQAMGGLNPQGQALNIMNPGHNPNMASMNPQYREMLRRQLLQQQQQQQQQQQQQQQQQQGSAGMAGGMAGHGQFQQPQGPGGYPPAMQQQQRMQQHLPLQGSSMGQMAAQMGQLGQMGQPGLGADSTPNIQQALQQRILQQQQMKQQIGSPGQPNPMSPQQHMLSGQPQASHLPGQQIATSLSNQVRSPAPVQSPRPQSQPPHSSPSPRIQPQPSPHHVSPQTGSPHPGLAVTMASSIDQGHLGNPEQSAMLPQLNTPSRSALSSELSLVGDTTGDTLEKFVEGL

U-266 = test: Antiproliferative activity against human U266B1 cells measured after 6 days by CellTiter-Glo assay; assay type: functional, cell-based
HL-60 = test: Antiproliferative activity against human HL60 cells measured after 6 days by CellTiter-Glo assay; assay type: functional, cell-based
EJM = test: Antiproliferative activity against human EJM cells measured after 6 days by CellTiter-Glo assay; assay type: functional, cell-based
Kasumi 1 = test: Antiproliferative activity against human Kasumi-1 cells measured after 6 days by CellTiter-Glo assay; assay type: functional, cell-based
[3] = molecular target: T1, CREB-binding protein/Histone acetyltransferase p300; test: Inhibition of CBP/EP300 in human KMS34 cells assessed as decrease in MYC expression at 5 uM measured after 4 hrs by RT-PCR analysis relative to DMSO control; assay type: cell-based
[4] = Half life in nu/nu mouse at 1 mg/kg, iv or 100 mg/kg, po by LC-MS/MS analysis; assay type: ADME, organism-based; details: in vivo
[5] = Volume of distribution at steady state in nu/nu mouse at 1 mg/kg, iv or 100 mg/kg, po by LC-MS/MS analysis; assay type: ADME, organism-based; details: in vivo, read-out: Vdss
Cytochrome P450 2D6 = Cytochrome P450 2D6 (Homo sapiens, UniProt P10635); test: Inhibition of CYP2D6 in human liver microsomes assessed as formation of dextrophan from dextromethorphan measured after 10 mins in presence of NADPH by LC-MS/MS analysis; assay type: ADME
MOLM16 [6] = test: Antiproliferative activity against human MOLM16 cells measured after 6 days by CellTiter-Glo assay; assay type: functional, cell-based
[7] = Decrease in MYC mRNA expression in tumor of SCID beige mouse xenografted with human MOLM16 cells at 100 mg/kg, po administered twice daily via gavage as single dose measured after 2 hrs by RT-PCR analysis relative to control; assay type: functional, organism-based
[8] = molecular target: T1, CREB-binding protein/Histone acetyltransferase p300; test: Inhibition of CBP/EP300 in human MOLM16 cells assessed as decrease in MYC expression at 0.1 to 1 uM measured after 4 hrs Western blot analysis; assay type: cell-based
[9] = Protein binding in nu/nu mouse plasma at 5 uM measured after 4 hrs by LC-MS/MS analysis; assay type: ADME, cell-free; details: read-out: PPB (converted)
[10] = molecular target: T1, CREB-binding protein/Histone acetyltransferase p300; test: Inhibition of CBP/EP300 in human MOLM16 cells assessed as suppression of MYB expression at 5 uM measured after 4 hrs by RT-PCR analysis relative to DMSO control; assay type: cell-based
KMS26 = test: Antiproliferative activity against human KMS26 cells measured after 6 days by CellTiter-Glo assay; assay type: functional, cell-based
[11] = Time at which unbound drug level in SCID beige mouse tumor stays above cellular MYC EC90 at 10 mg/kg, po administered twice daily via gavage as single dose; assay type: ADME, organism-based; details: in vivo
[12] = Antitumor activity against human MOLM16 cells xenografted in SCID beige mouse assessed as tumor growth inhibition at 25 mg/kg, po BID administered through gavage for 21 days; assay type: functional; details: read-out: TGI
[13] = Decrease in MYC mRNA expression in tumor of SCID beige mouse xenografted with human MOLM16 cells at 10 mg/kg, po administered twice daily via gavage as single dose measured after 2 to 8 hrs by RT-PCR analysis; assay type: functional, organism-based
[14] = molecular target: T1, CREB-binding protein/Histone acetyltransferase p300; test: Inhibition of CBP/EP300 in human LP-1 cells assessed as decrease in MYC expression at 5 uM measured after 4 hrs by RT-PCR analysis relative to DMSO control; assay type: cell-based
[15] = Cmax in nu/nu mouse at 100 mg/kg, po by LC-MS/MS analysis; assay type: ADME, organism-based; design: dose 100 mg/kg, route oral; details: in vivo
LP-1 = test: Antiproliferative activity against human LP-1 cells measured after 6 days by CellTiter-Glo assay; assay type: functional, cell-based
Jurkat = test: Antiproliferative activity against human Jurkat cells measured after 6 days by CellTiter-Glo assay; assay type: functional, cell-based
[16] = molecular target: T1, CREB-binding protein/Histone acetyltransferase p300; test: Inhibition of CBP/EP300 in human MOLM16 cells assessed as suppression of CCND1 expression at 5 uM measured after 4 hrs by RT-PCR analysis relative to DMSO control; assay type: cell-based
[17] = molecular target: T1, CREB-binding protein/Histone acetyltransferase p300; test: Inhibition of CBP/EP300 in human MOLM16 cells assessed as suppression of BCL6 expression at 5 uM measured after 4 hrs by RT-PCR analysis relative to DMSO control; assay type: cell-based
Mus musculus = test: Inhibition of MYC mRNA expression in SCID beige mouse xenografted with human MOLM16 cells assessed as MYC transcript level at 3 to 100 mg/kg, po administered twice daily via gavage as single dose measured after 24 hrs by RT-PCR analysis relative to control; assay type: functional; design: scale not given: the % may be the effect or the level left
MOLM16 [18] = test: Antitumor activity against human MOLM16 cells xenografted in SCID beige mouse assessed as tumor growth inhibition compound administered through oral gavage twice daily for 21 days; assay type: functional, cell-based
KMS-11 = test: Antiproliferative activity against human KMS11 cells measured after 6 days by CellTiter-Glo assay; assay type: functional, cell-based
[19] = Oral bioavailability in nu/nu mouse at 100 mg/kg by LC-MS/MS analysis; assay type: ADME, organism-based; details: in vivo
[20] = molecular target: T1, CREB-binding protein/Histone acetyltransferase p300; test: Inhibition of CBP/EP300 in human MOLM16 cells assessed as suppression of BCL-XL expression at 5 uM measured after 4 hrs by RT-PCR analysis relative to DMSO control; assay type: cell-based
[21] = molecular target: T1, CREB-binding protein/Histone acetyltransferase p300; test: Inhibition of CBP/EP300 in human Pfeiffer cells assessed as decrease in MYC expression at 5 uM measured after 4 hrs by RT-PCR analysis relative to DMSO control; assay type: cell-based
THP2 = test: Antiproliferative activity against human THP2 cells measured after 6 days by CellTiter-Glo assay; assay type: functional, cell-based
Cytochrome P450 2C9 = Cytochrome P450 2C9 (Homo sapiens, UniProt P11712); test: Inhibition of CYP2C9 in human liver microsomes assessed as formation of 7-hydroxywarfarin from warfarin measured after 30 mins in presence of NADPH by LC-MS/MS analysis; assay type: ADME; details: 0.5 h
[22] = Clearance in nu/nu mouse at 1 mg/kg, iv by LC-MS/MS analysis; assay type: ADME, organism-based; details: in vivo
DOHH-2 = test: Antiproliferative activity against human DOHH2 cells measured after 6 days by CellTiter-Glo assay; assay type: functional, cell-based
[23] = molecular target: T1, CREB-binding protein/Histone acetyltransferase p300; test: Inhibition of CBP/EP300 in human MOLM16 cells assessed as decrease in MYC expression measured after 4 hrs by RT-PCR analysis; assay type: cell-based
[24] = Decrease in MYC mRNA expression in tumor of SCID beige mouse xenografted with human MOLM16 cells at 30 mg/kg, po administered twice daily via gavage as single dose measured after 2 hrs by RT-PCR analysis relative to control; assay type: functional, organism-based

CC(=O)N1CCc2c(c(Nc3ccc(-c4cnn(C)c4)cc3F)nn2[C@@H]2CCOC2)C1
Papp A→B at 3 h, 10 µM [1]: 15 ×10⁻⁶ cm/s | IC50 (Cytochrome P450 3A4): > 10000 nM | inhibition [2]: Active | Activity (U-266): Active | Activity (HL-60): Active | Activity (EJM): Active | Activity (Kasumi 1): Active | inhibition [3]: Active | half-life [4]: 2 h | Vd [5]: 1.5 L/kg | INH (Cytochrome P450 2D6): > 10 µM | Activity (MOLM16 [6]): Active | inhibition [7]: 86% | inhibition [8]: Active | fraction unbound at 4 h, 5 µM [9]: 0.16 | inhibition [10]: Active | Activity (KMS26): Active | Time [11]: 24 h | inhibition in vivo at 25 mg/kg [12]: 65% | inhibition [13]: Active | inhibition [14]: Active | Cmax [15]: 163 µM | Activity (LP-1): Active | Activity (Jurkat): Active | inhibition [16]: Active | inhibition [17]: Active | Activity (Mus musculus): 150 - 200% | TGI (MOLM16 [18]): Dose-dependent effect | Activity (KMS-11): Active | bioavailability [19]: 100% | inhibition [20]: Active | inhibition [21]: Active | Activity (THP2): Active | INH (Cytochrome P450 2C9): > 10 µM | clearance [22]: 9.6 mL/min/kg | Activity (DOHH-2): Active | EC90 [23]: 621 nM | inhibition [24]: 78%
